{
  "source": "patent US10294202B2",
  "about": "“Pyrrolidinones as herbicides” (FMC Corporation, priority 2013, dated 2019)",
  "key": {"barley (winter barley)": {"test_system": "barley (winter barley)", "assay": "Test C postemergence herbicide test", "assay_type": "in vivo, Hordeum vulgare", "source_text": "At the same time, plants selected from these crop and weed species and also barley (winter barley, Hordeum vulgare), […]), chickweed (common chickweed, Stellaria media), deadnettle (henbit deadnettle, Lamium amplexicaule), and canarygrass (littleseed canarygrass, Phalaris minor) were planted in pots containing Redi-Earth® planting medium (Scotts Company, 14111 Scottslawn Road, Marysville, Ohio 43041) comprising spaghnum peat moss, vermiculite, wetting agent and starter nutrients and treated with postemergence applications of test chemicals formulated in the same manner. Plants ranged in height from 2 to 18 cm (1- to 4-leaf stage) for postemergence treatments. Treated plants and controls were maintained in a greenhouse for 13 to 15 days, after which time all species were compared to controls and visually evaluated. Plant response ratings, summarized in Table C, are based on a scale of 0 to 100 where 0 is no effect and 100 is complete control. A dash (-) response means no test result."}, "windgrass": {"test_system": "windgrass", "assay": "Test C postemergence herbicide test", "assay_type": "in vivo, Apera spica-venti", "how_it_was_run": "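Greenhouse pot plants at 2 to 18 cm height (1- to 4-leaf stage) received a postemergence application of formulated test chemical. Visual ratings against untreated controls were made after 13 to 15 days, on a 0 (no effect) to 100 (complete control) scale.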"}, "cocklebur": {"test_system": "cocklebur", "assay": "Test E preemergence herbicide test", "assay_type": "in vivo, Xanthium strumarium", "set-up": "key: 0 = no effect, 100 = complete control", "how_it_was_run": "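Seeds sown in silt loam soil received preemergence treatment with compound in a non-phytotoxic solvent mixture containing surfactant. After 21 days in the greenhouse, plants were visually rated against untreated controls on a 0 (no effect) to 100 (complete control) scale.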"}, "sedge, umbrella": {"test_system": "sedge, umbrella", "assay": "Test F flood (paddy) test", "assay_type": "in vivo, Cyperus difformis", "conditions": "21 d, scale 0-100", "source_text": "Three plastic pots (ca. 16-cm diameter) per rate were partially filled with sterilized Tama silt loam soil comprising a 35:50:15 ratio of sand, silt and clay and 2.6% organic matter. Separate plantings for each of the three pots were as follows. Seeds from the U.S. of monochoria (Monochoria vaginalis), sedge, umbrella (small-flower umbrella sedge, Cyperus difformis), bulrush, […] bulrush, Scirpus juncoides), and […] (purple […] coccinea), were planted into one 16-cm pot for each rate. Seeds from the U.S. of flatsedge, rice (rice flatsedge, Cyperus iria), sprangletop, Brdd. (bearded sprangletop, Leptochloa fascicularis), one stand of 9 or 10 water seeded rice seedlings (Rice, W.S. Jap, Oryza sativa cv. 'Japonica-[…]' or Rice, W.S. Ind, 'Indica'), and two stands of 3 or 4 seedlings of rice, transplanted (transplanted rice, Oryza sativa cv. 'Japonica-[…]') were planted into one 16-cm pot for each rate. Seeds from the U.S. of barnyardgrass (Echinochloa crus-galli), […] (common […], Alisma plantago-aquatica), and watergrass, late (late watergrass, Echinochloa oryzicola) were planted into one 16-cm pot for each rate. Plantings were sequential so that crop and weed species were at the 2.0 to 2.5-leaf stage at time of treatment. Potted plants were grown in a greenhouse with day/night temperature settings of 30/27° C., and supplemental balanced lighting was provided to maintain a 16-h photoperiod. Test pots were maintained in the greenhouse until test completion. At time of treatment, test pots were flooded to 3 cm above the soil surface, treated by application of test compounds directly to the paddy water, and then maintained at that water depth for the duration of the test. Effects of treatments on rice and weeds were visually evaluated by comparison to untreated controls after 21 d. Plant response ratings, summarized in Table F, are based on a scale of 0 to 100 where 0 is no effect and 100 is complete control. A dash (-) response means no test result."}, "flatsedge, rice": {"test_system": "flatsedge, rice", "assay": "Test F flood (paddy) test", "assay_type": "in vivo, Cyperus iria", "conditions": "21 d, scale 0-100", "how_it_was_run": "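Greenhouse paddy, 30/27 °C day/night, 16-h light; sterilized Tama silt loam, 2.6% OM. Plants at 2.0–2.5 leaves; flood 3 cm, compound added directly to water. Visual score at 21 d, 0 = no effect, 100 = complete control, relative to untreated.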"}, "[1]": {"conditions": "31 g ai/ha, scale 0 (no effect) to 100 (complete control)"}, "[2]": {"conditions": "62 g ai/ha, scale 0 to 100 (0 no effect, 100 complete control)"}, "[3]": {"conditions": "125 g ai/ha, scale 0 to 100 (0 no effect, 100 complete control)"}, "[4]": {"conditions": "250 g ai/ha, scale 0 to 100 (0 no effect, 100 complete control)"}},
  "data": [
    {"smiles": "O=C1NCC(c2ccc(F)c(F)c2)C1C(=O)Nc1cccc(F)c1F", "note": "(stereo not shown) [Compound 17, N-(2,3-difluorophenyl)-4-(3,4-difluorophenyl)-2-oxo-3-pyrrolidinecarboxamide]", "values": [
      {"measurement": "Plant response rating, Barley", "setting": "barley (winter barley); [1]", "value": 0},
      {"measurement": "Plant response rating, Barley", "setting": "barley (winter barley); [2]", "value": 0},
      {"measurement": "Plant response rating, Barley", "setting": "barley (winter barley); [3]", "value": 0},
      {"measurement": "Plant response rating, Barley", "setting": "barley (winter barley); [4]", "value": 0},
      {"measurement": "Plant response rating, Windgrass", "setting": "windgrass; [1]", "value": 0},
      {"measurement": "Plant response rating, Windgrass", "setting": "windgrass; [2]", "value": 0},
      {"measurement": "Plant response rating, Windgrass", "setting": "windgrass; [3]", "value": 0},
      {"measurement": "Plant response rating, Windgrass", "setting": "windgrass; [4]", "value": 0},
      {"measurement": "Plant response rating, Cocklebur", "setting": "cocklebur; 16 g ai/ha", "value": 0},
      {"measurement": "Plant response rating, Cocklebur", "setting": "cocklebur; 31 g ai/ha", "value": 0},
      {"measurement": "Plant response rating, Cocklebur", "setting": "cocklebur; 62 g ai/ha", "value": 0},
      {"measurement": "Plant response rating, Cocklebur", "setting": "cocklebur; 125 g ai/ha", "value": 0},
      {"measurement": "Plant response rating, Sedge, Umbrella", "setting": "sedge, umbrella; 125 g ai/ha", "value": 0},
      {"measurement": "Plant response rating, Sedge, Umbrella", "setting": "sedge, umbrella; 250 g ai/ha", "value": 0},
      {"measurement": "Plant response rating, Sedge, Umbrella", "setting": "sedge, umbrella; 500 g ai/ha", "value": 0},
      {"measurement": "Plant response rating, Sedge, Umbrella", "setting": "sedge, umbrella; 1000 g ai/ha", "value": 0},
      {"measurement": "Plant response rating, Sedge, Umbrella", "setting": "sedge, umbrella; 2000 g ai/ha", "value": 20},
      {"measurement": "Plant response rating, Flatsedge, Rice", "setting": "flatsedge, rice; 125 g ai/ha", "value": 20},
      {"measurement": "Plant response rating, Flatsedge, Rice", "setting": "flatsedge, rice; 250 g ai/ha", "value": 20},
      {"measurement": "Plant response rating, Flatsedge, Rice", "setting": "flatsedge, rice; 500 g ai/ha", "value": 20},
      {"measurement": "Plant response rating, Flatsedge, Rice", "setting": "flatsedge, rice; 1000 g ai/ha", "value": 35},
      {"measurement": "Plant response rating, Flatsedge, Rice", "setting": "flatsedge, rice; 2000 g ai/ha", "value": 40}
    ]}
  ]
}
